Test results as given in patent US20210189342A1, “COMPOSITIONS AND METHODS FOR MODULATING MONOCYTE AND MACROPHAGE INFLAMMATORY PHENOTYPES AND IMMUNOTHERAPY USES THEREOF” (Verseau Therapeutics, Inc., priority 2018, published 2021).

Columns and labels:
Type in all cases: cell-based, human
TNFAIP8L2 = assay: siRNA dose response, TNFAIP8L2 mRNA knockdown, bDNA Assay; details: THP-1, 24 hr
Description: (§1) Dose response curves for siRNAs were generated in vitro using a variety of cell lines according to Table 4.
(§2) Briefly, cells were seeded in 96-well plates and reverse transfected with siRNA, Lipofectamine® 2000 (0.5 uL/well; ThermoFisher), and, in some cases, a reporter plasmid (50 ng/well). The reporter plasmid (psiCHECK™-2, Promega) encoded both firefly luciferase and the gene of interest fused to renilla luciferase; silencing of the gene of interest results in proportional silencing of renilla luciferase but leaves firefly luciferase unaffected as an internal control.
(§3) After 24 hr incubation at 37° C., mRNA knockdown was measured using an endpoint assay. For targets without a reporter plasmid, a branched DNA (bDNA) assay was performed according to the manufacturer's instructions (QuantiGene® Singleplex Gene Expression Assay, ThermoFisher) to measure both the target gene and GAPDH (housekeeping gene) mRNA. Data are plotted as siRNA concentration (nM) vs. remaining mRNA (ratio of target gene to GAPDH, normalized to mock siRNA-transfected cells). For targets with a reporter plasmid, a Dual-Glo® Luciferase Assay was performed according to the manufacturer's instructions (Promega) to measure firefly and renilla luciferase expression. Data are plotted as siRNA concentration (nM) vs. remaining mRNA (ratio of renilla to firefly luminescence, normalized to mock siRNA-transfected cells).
(§4) For all dose response curves, a 4-parameter logistic model was applied to determine the IC50 of each siRNA sequence (Table 5 and FIG. 2). Data shown in Table 5 and FIG. 2 represent the mean of quadruplicates, +/−standard deviation.

SELPLG = assay: siRNA dose response, SELPLG mRNA knockdown, bDNA Assay; details: THP-1, 24 hr
Description: as §1, §2, §3, §4

SPI1 = assay: siRNA dose response, SPI1 mRNA knockdown, bDNA Assay; details: THP-1, 24 hr
Description: as §1, §2, §3, §4

TBXAS1 = assay: siRNA dose response, TBXAS1 mRNA knockdown, bDNA Assay; details: A549, 24 hr
Description: as §1, §2, §3, §4

Row | Substance | IC50 (TNFAIP8L2) [nM] | IC50 (SELPLG) [nM] | other results
1 | XD-09768: siRNA targeting TNFAIP8L2 (sense 5'-aaAucAAucAuGuuAcAcudTsdT-3'; antisense 5'-AGUGuAAcAUGAUUGAUUUdTsdT-3'; RNA with 2'-O-methyl and phosphorothioate modifications, case key not given here, as printed in the source, key not given here) | 0.353 |  | 
2 | XD-09765: siRNA targeting TNFAIP8L2 (sense 5'-cuGcGcGAGGcGcaAuAcAdTsdT-3'; antisense 5'-UGuAUUGCGCCUCGCGcAGdTsdT-3'; RNA with 2'-O-methyl and phosphorothioate modifications, case key not given here, as printed in the source, key not given here) | 0.023 |  | 
3 | XD-09760: siRNA targeting TNFAIP8L2 (sense 5'-ggAccAGGccGuGaucucudTsdT-3'; antisense 5'-AGAGAUcACGGCCUGGUCCdTsdT-3'; RNA with 2'-O-methyl and phosphorothioate modifications, case key not given here, as printed in the source, key not given here) | 0.058 |  | 
4 | XD-09267: siRNA targeting SELPLG (sense 5'-acuGAAGAGuGAcgGAcuudTsdT-3'; antisense 5'-AAGUCCGUcACUCUUcAGUdTsdT-3'; RNA with 2'-O-methyl and phosphorothioate modifications, case key not given here, as printed in the source, key not given here) |  | 1.07 | 
5 | XD-09764: siRNA targeting TNFAIP8L2 (sense 5'-cguuGcGcuGGAAgGAAuudTsdT-3'; antisense 5'-AAUUCCUUCcAGCGcAACGdTsdT-3'; as printed in the source, key not given here) | 2.98 |  | 
6 | XD-09781: siRNA targeting SPI1 (sense CGCCAAACGCACGAGUAUUTT; antisense AAUACUCGUGCGUUUGGCGTT; 2'-O-methyl and phosphorothioate modified, lower-case key not given here) |  |  | IC50 (SPI1): 0.455 nM
7 | XD-09263: siRNA targeting SELPLG (sense 5'-gcAcAGAccAcucaAcccAdTsdT-3'; antisense 5'-UGGGUUGAGUGGUCUGUGCdTsdT-3'; as printed in the source, key not given here) |  | 2.96 | 
8 | XD-09262: siRNA targeting SELPLG (sense 5'-ccGAAuAuGAGuAccuAGAdTsdT-3'; antisense 5'-UCuAGGuACUcAuAUUCGGdTsdT-3'; as printed in the source, key not given here) |  | 1.35 | 
9 | XD-09789: siRNA targeting SPI1 (sense 5'-aaAGuuAuucucAauccAudTsdT-3'; antisense 5'-AUGGAUUGAGAAuAACUUUdTsdT-3'; as printed in the source, key not given here) |  |  | IC50 (SPI1): 0.442 nM
10 | XD-09783: siRNA targeting SPI1 (sense GCGACAUGAAGGACAGCAUTT; antisense AUGCUGUCCUUCAUGUCGCTT; 2'-O-methyl and phosphorothioate modified, lower-case key not given here) |  |  | IC50 (SPI1): 1.11 nM
11 | XD-09786: siRNA targeting SPI1 (sense UCUCAAGUCCGUAUGUAAATT; antisense UUUACAUACGGACUUGAGATT; 2'-O-methyl and phosphorothioate modified, lower-case key not given here) |  |  | IC50 (SPI1): 0.25 nM
12 | XD-09780: siRNA targeting SPI1 (sense GGAUCUAUACCAACGCCAATT; antisense UUGGCGUUGGUAUAGAUCCTT; 2'-O-methyl and phosphorothioate modified, lower-case key not given here) |  |  | IC50 (SPI1): 2.66 nM
13 | XD-09762: siRNA targeting TNFAIP8L2 (sense 5'-uuuAAuGuAucGcuAccAAdTsdT-3'; antisense 5'-UUGGuAGCGAuAcAUuAAAdTsdT-3'; as printed in the source, key not given here) | 0.226 |  | 
14 | XD-09261: siRNA targeting SELPLG (sense 5'-ccAccGAAuAUGAguAccudTsdT-3'; antisense 5'-AGGuACUcAuAUUCGGUGGdTsdT-3'; as printed in the source, key not given here) |  | 0.386 | 
15 | XD-09268: siRNA targeting SELPLG (sense 5'-ccAAGGGcAGAccuuucuudTsdT-3'; antisense 5'-AAGAAAGGUCUGCCCUUGGdTsdT-3'; RNA with 2'-O-methyl and phosphorothioate modifications, case key not given here, as printed in the source, key not given here) |  | 0.471 | 
16 | XD-09265: siRNA targeting SELPLG (sense 5'-aaGcAGAcGGGcAaGuGGAdTsdT-3'; antisense 5'-UCcACUUGCCCGUCUGCUUdTsdT-3'; RNA with 2'-O-methyl and phosphorothioate modifications, case key not given here, as printed in the source, key not given here) |  | 0.486 | 
17 | XD-09766: siRNA targeting TNFAIP8L2 (sense 5'-cccucGAuGuAcAuAGcuudTsdT-3'; antisense 5'-AAGCuAUGuAcAUCGAGGGdTsdT-3'; RNA with 2'-O-methyl and phosphorothioate modifications, case key not given here, as printed in the source, key not given here) | 0.127 |  | 
18 | XD-09796: siRNA targeting TNFAIP8L2 (sense 5'-gcAcAuAGcAAGcuGAAcudTsdT-3'; antisense 5'-AGUUcAGCUUGCuAUGUGCdTsdT-3'; RNA with 2'-O-methyl and phosphorothioate modifications, case key not given here, as printed in the source, key not given here) | 11.6 |  | 
19 | XD-09266: siRNA targeting SELPLG (sense 5'-aguAcuGAAGAGugAcGGAdTsdT-3'; antisense 5'-UCCGUcACUCUUcAGuACUdTsdT-3'; RNA with 2'-O-methyl and phosphorothioate modifications, case key not given here, as printed in the source, key not given here) |  | 0.207 | 
20 | XD-09761: siRNA targeting TNFAIP8L2 (sense 5'-ggucAGGuGGAGAucucuudTsdT-3'; antisense 5'-AAGAGAUCUCcACCUGACCdTsdT-3'; RNA with 2'-O-methyl and phosphorothioate modifications, case key not given here, as printed in the source, key not given here) | 0.701 |  | 
21 | XD-09264: siRNA targeting SELPLG (sense 5'-accAAAAGAGGucuGuucAdTsdT-3'; antisense 5'-UGAAcAGACCUCUUUUGGUdTsdT-3'; as printed in the source, key not given here) |  | 1.96 | 
22 | XD-10494: siRNA targeting TBXAS1 (sense 5'-caAuAAGAAccGAgAcGAAdTsdT-3'; antisense 5'-UUCGUCUCGGUUCUuAUUGdTsdT-3'; RNA with 2'-O-methyl and phosphorothioate modifications, case key not given here, as printed in the source, key not given here) |  |  | IC50 (TBXAS1): 0.049 nM
